Consider 36 cell lines from the supplement of paper PMC10307832.

Compound in this assay: CN(NC(=O)CC(=O)NN(C)C(=S)c1ccccc1)C(=S)c1ccccc1 [Elesclomol] + O=C(CCCCCCC(=O)Nc1ccccc1)NO [Vorinostat] (partner 1 µM)
Put plainly: relative viability (nuclei count vs DMSO), 5 days (fraction); higher = more cells survive. A digest of the protocol:
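For relative viability, nuclei counts in treated wells were divided by those in vehicle wells. Lung cancer cell lines had been pin-tool dosed in 1536-well plates the day after seeding and cultured for 5 days, then fixed and stained in one step (final 0.05% Triton X-100, 1% formaldehyde, 1 ug/ml Hoechst) and imaged at 4×. Doses were one drug alone or a fixed anchor-drug dose plus five library-drug doses (not always all listed) in √10 steps, and values are duplicate-plate medians.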

In the case of 201T, the relative viability (first compound 0.003162 µM) is 0.968, the relative viability (first compound 0.01 µM) is 0.995, the relative viability (first compound 0.03162 µM) is 0.869 and the relative viability (first compound 0.1 µM) came to 0.68.
In the same order, the values of A-427 are 0.823, 0.755, 0.192 and 0.15.
In the case of ABC-1, the relative viability (first compound 0.003162 µM) was determined as 0.426, the relative viability (first compound 0.01 µM) was determined as 0.249, the relative viability (first compound 0.03162 µM) stood at 0.262 and the relative viability (first compound 0.1 µM) was determined as 0.244.
In the same order, the values of BEN are 0.585, 0.563, 0.448 and 0.385.
Taken in the same sequence, the figures for CAL-12T were 0.66, 0.245, 0.101 and 0.0721.
In the same order, the values of COR-L23 are 0.378, 0.156, 0.144 and 0.0678.
Consider COR-L 105, for which the relative viability came out at 1 (first compound 0.003162 µM), 0.57 (first compound 0.01 µM), 0.361 (first compound 0.03162 µM) and 0.336 (first compound 0.1 µM).
In the same order, the values of ChaGo-K-1 are 0.791, 0.638, 0.338 and 0.146.
Taken in the same sequence, the figures for EKVX were 0.659, 0.336, 0.241 and 0.253.
Turning to EMC-BAC-2, the relative viability runs as follows: (first compound 0.003162 µM) 0.486; (first compound 0.01 µM) 0.231; (first compound 0.1 µM) 0.22.
Take EPLC-272H: the relative viability (first compound 0.003162 µM) stood at 0.178, the relative viability (first compound 0.01 µM) was 0.0788, the relative viability (first compound 0.03162 µM) is 0.133 and the relative viability (first compound 0.1 µM) came out at 0.129.
Turning to H3255, the relative viability (first compound 0.003162 µM) is 0.843, the relative viability (first compound 0.01 µM) worked out at 0.62, the relative viability (first compound 0.03162 µM) was found to be 0.426 and the relative viability (first compound 0.1 µM) turned out to be 0.44.
Taken in the same sequence, the figures for HARA were 0.607, 0.542, 0.616 and 0.163.
Taken in the same sequence, the figures for HCC-15 were 0.81, 0.776, 0.645 and 0.265.
Taken in the same sequence, the figures for HCC-44 were 1.09, 1.16, 1.16 and 1.08.
In the case of HCC-78, the relative viability reads like this: (first compound 0.003162 µM) 0.46; (first compound 0.01 µM) 0.38; (first compound 0.03162 µM) 0.36; (first compound 0.1 µM) 0.553.
Taken in the same sequence, the figures for HCC-366 were 0.371, 0.228, 0.173 and 0.0207.
In the same order, the values of HCC-827 are 0.759, 0.777, 0.742 and 0.767.
Taken in the same sequence, the figures for HOP-62 were 0.659, 0.469, 0.477 and 0.136.
IA-LM: the relative viability was found to be 0.863 (first compound 0.003162 µM), 0.858 (first compound 0.01 µM), 0.999 (first compound 0.03162 µM) and 0.847 (first compound 0.1 µM).
In the same order, the values of LC-2-ad are 0.642, 0.608, 0.24 and 0.169.
Taken in the same sequence, the figures for LCLC-97TM1 were 0.724, 0.283, 0.707 and 0.0661.
Turning to LCLC-103H, the relative viability (first compound 0.003162 µM) worked out at 0.82, the relative viability (first compound 0.01 µM) worked out at 0.496, the relative viability (first compound 0.03162 µM) was determined as 0.877 and the relative viability (first compound 0.1 µM) is 0.568.
Taken in the same sequence, the figures for LK-2 were 0.395, 0.232, 0.167 and 0.121.
In the same order, the values of LOU-NH91 are 1.02, 0.826, 0.782 and 0.66.
Taken in the same sequence, the figures for LU99A were 0.438, 0.459, 0.429 and 0.162.
Take LXF-289: the relative viability came to 0.79 (first compound 0.003162 µM), 0.779 (first compound 0.01 µM), 0.706 (first compound 0.03162 µM) and 0.483 (first compound 0.1 µM).
Taken in the same sequence, the figures for NCI-H23 were 0.559, 0.385, 0.318 and 0.0919.
In the same order, the values of NCI-H322M are 0.72, 0.42, 0.289 and 0.191.
In the same order, the values of NCI-H358 are 0.62, 0.0764, 0.0906 and 0.0819.
On to NCI-H441, for which the relative viability (first compound 0.003162 µM) amounted to 0.553, the relative viability (first compound 0.01 µM) was determined as 0.729, the relative viability (first compound 0.03162 µM) worked out at 0.445 and the relative viability (first compound 0.1 µM) turned out to be 0.17.
Taken in the same sequence, the figures for NCI-H460 were 0.712, 0.508, 0.275 and 0.018.
In the same order, the values of NCI-H520 are 0.775, 0.662, 0.225 and 0.0994.
Taken in the same sequence, the figures for NCI-H522 were 0.927, 0.888, 0.862 and 0.604.
Turning to NCI-H596, the relative viability reads like this: (first compound 0.003162 µM) 0.632; (first compound 0.01 µM) 0.577; (first compound 0.03162 µM) 0.485; (first compound 0.1 µM) 0.219.
With NCI-H647, the relative viability runs as follows: (first compound 0.003162 µM) 0.24; (first compound 0.01 µM) 0.337; (first compound 0.03162 µM) 0.133; (first compound 0.1 µM) 0.0479.
